Assay results: patent US20160263109A1, “P13K INHIBITOR FOR TREATMENT OF RESPIRATORY DISEASE” (GLAXOSMITHKLINE INTELLECTUAL PROPERTY DEVELOPMENT LIMITED, priority 2013, published 2016)
Structures can show the parent of a compound that is named as a salt.

Experiments:
[1] = tested on: S. pneumoniae strain TIGR4; assay: Streptococcus pneumoniae infection in mice, survival by defined mortality-endpoint; type: in vivo; conditions: C57BL/6 mice, 0.2 mg/kg intranasal twice daily for eleven days, infected intranasally with 1×10^7 CFU S. pneumoniae TIGR4; n=60; Mantel-Cox **p<0.005
Procedure: (§1) Germ-free C57BL/6 male and female mice aged 10-12 weeks were intranasally administered with 0.2% Tween-80/saline vehicle or 0.2 mg/kg micronized 6-(1H-indol-4-yl)-4-(5-{[4-(1-methylethyl)-1-piperazinyl]methyl}-1,3-oxazol-2-yl)-1H-indazole hydrochloride in the same vehicle. Compound dosing was carried out twice daily for eleven days under anaesthesia using 3% isoflurane for induction and 2% isoflurane for maintenance. At the start of day two, and one hour after administering 6-(1H-indol-4-yl)-4-(5-{[4-(1-methylethyl)-1-piperazinyl]methyl}-1,3-oxazol-2-yl)-1H-indazole hydrochloride or vehicle, mice were anaesthetized with isoflurane as above and infected intranasally with 1×10^7 CFU of S. pneumoniae strain TIGR4. S. Pneumoniae was obtained and prepared as described previously (see, for example, Infect. Immun. December 2011; 79(12): 4965-4976) and given in an inoculum of 50 μl PBS per mouse. Mice were monitored three times daily and assessed using a defined mortality-endpoint, where mice displaying three or more of the limiting clinical signs stated in Home Office Project Licence PPL 70/7661 were culled.

lung gene expression = assay: Affymetrix GeneChip lung gene expression in S. Pneumoniae-infected mice; type: in vivo; conditions: lungs of S. Pneumoniae-infected mice at various timepoints after infection; genes with minimum 1.5 fold-change, p<0.05; n=6
Procedure: as §1
Each band corresponds to a single probe and intensity signifies fold change, as indicated in the legend.

CC(C)N1CCN(Cc2cnc(-c3cc(-c4cccc5[nH]ccc45)cc4[nH]ncc34)o2)CC1 [6-(1H-indol-4-yl)-4-(5-{[4-(1-methylethyl)-1-piperazinyl]methyl}-1,3-oxazol-2-yl)-1H-indazole hydrochloride]
defined mortality-endpoint (percentage survival) compared to vehicle controls [1]: reduced a defined mortality-endpoint
lung gene expression compared to vehicle controls (lung gene expression): altered lung gene expression
